Source: US20080305186A1, “Method and Composition for the Treatment of Cardiac Hypertrophy” (BOARD OF REGENTS, THE UNIVERSITY OF TEXAS SYSTEM, priority 2007, published 2008)

System: cardiac gene expression
Test: Microarray analysis of cardiac gene expression (GeneChip Mouse Genome 430 2.0)
Type: in vivo, mice
Protocol: Microarray Sample Preparation and Analysis. Animal hearts were rapidly removed, and the atria and right ventricles were cut and immediately plunged into TRIzol Reagent (Life Technologies). Total RNA was isolated following the manufacturer's instructions, purified by phenol-chloroform extraction and then ethanol precipitation, and 20 μg further processed for microarray analysis. Briefly, cDNA synthesis, in vitro transcription, and labeling and fragmentation to produce the oligonucleotide probes were performed as instructed by the GeneChip manufacturer (Affymetrix). The probes were first hybridized to a test array (Affymetrix) and then to the GeneChip Mouse Genome 430 2.0 Array, using the GeneChip Hybridization Oven 640. The chips were washed in a GeneChip Fluidics Station 450 (Affymetrix), and the results were visualized with a GeneChip G7 scanner (Affymetrix). RMA normalization, pairwise comparisons, Student's t test and Benjamini and Hochberg correction were subsequently performed using GeneSifter (VizX Labs, Seattle, Wash.) and Spotfire DecisionSite 8.3 (Spotfire, Inc., Somerville, Mass.).
Effects on Gene Expression Profile. […] One mouse heart was used for each array, and was performed in triplicate, generating a total of 12 arrays. GeneSifter was used to perform RMA normalization, pairwise comparisons of averaged signal intensity values, and Student's t-test with Benjamini and Hochberg correction, and Spotfire was used to perform pairwise comparisons. […] Additionally, genes that were altered between any two N or cardiac hypertrophy samples were removed, as these alterations most likely represented normal variations between mice.

[1] = CH vs drug-treated isoproterenol mice

For `C[C@H]1c2cccc(O)c2C(=O)C2=C(O)[C@]3(O)C(=O)C(C(N)=O)=C(O)[C@@H](N(C)C)[C@@H]3[C@@H](O)[C@@H]21` [doxycycline], the “Number of Altered Genes, Average FC (1.5-fold)” value [1] was 2929, the “Number of Altered Genes, Average FC (2-fold)” value [1] was 417 and the “Number of Altered Genes, Minus disease variability” value [1] was 578. The “Number of Altered Genes, Minus natural variability” value [1] was 994, the “Number of Altered Genes, Reproducible” value [1] was 497 and the “Number of Altered Genes, Student's t test” value [1] was 2274. The “Number of Altered Genes, Correction” value (CH vs drug-treated isoproterenol mice, Benjamini and Hochberg) was 2034, the “Number of Altered Genes, Disease-specific” value (CH vs drug-treated isoproterenol mice, of 779 genes altered N vs CH, altered in the reverse direction) was 327 and the “FC EST” value (GenBank AA419994, vs mice given only isoproterenol) was −1.7. The “FC Metallothionein 2 (Mt2)” value (GenBank AA796766, vs mice given only isoproterenol) was −5.5, the “FC Prostaglandin D synthetase (Ptgds)” value (GenBank AB006361, vs mice given only isoproterenol) was −2.0 and the “FC Potassium channel, subfamily K, member 3 (Kcnk3)” value (GenBank AF065162, vs mice given only isoproterenol) was 1.7. For the same compound, the “FC Small inducible cytokine A9 (Scya9) (Ccl9) (Mip-1[…])” value (GenBank AF128196, vs mice given only isoproterenol) was −2.0, the “FC Group V phospholipase A2 (Pla2g5)” value (GenBank AF162713, vs mice given only isoproterenol) was 2.2 and the “FC GABA-A receptor-associated protein-like protein 1 (Gabarapl1)” value (GenBank AF180518, 1st listing, vs mice given only isoproterenol) was −3.6. The “FC GABA-A receptor-associated protein-like protein 1 (Gabarapl1)” value (GenBank AF180518, 2nd listing, vs mice given only isoproterenol) was −3.1, the “FC Toll-like receptor 4 (TLR4)” value (GenBank AF185285, heart, drug + isoproterenol vs isoproterenol-only mice, CH vs normal FC 2.2) was −1.9 fold and the “FC TSC22-related inducible leucine zipper 3c (Tilz3c) (Dsip1)” value (GenBank AF201289, heart, drug + isoproterenol vs isoproterenol-only mice, CH vs normal FC 2.7) was −2.3 fold. For the same compound, the “FC Homeodomain interacting protein kinase 2 (Hipk2)” value (GenBank AF208292, vs mice given only isoproterenol) was 1.9, the “FC Cytochrome b-5 reductase (Cyb5r3)” value (GenBank AF332060, vs mice given only isoproterenol) was 1.7 and the “FC Transcription factor myocardin (Myocd)” value (GenBank AF384055, heart, drug + isoproterenol vs isoproterenol-only mice, CH vs normal FC −1.6) was 4.0 fold. For the same compound, the “FC F-box-WD40 repeat protein 6 (Fbxw6)” value (GenBank AF391192, vs mice given only isoproterenol) was 2.9, the “FC F-box only protein 32 (Fbxo32)” value (GenBank AF441120, vs mice given only isoproterenol) was −3.3 and the “FC FK506 binding protein 5 (51 kDa) (Fkbp5)” value (GenBank AI098139, vs mice given only isoproterenol) was −4.1. The “FC Myosin binding protein C, fast-type (Mybpc2)” value (GenBank AI326984, vs mice given only isoproterenol) was −3.2, the “FC Heparan sulfate 2-O-sulfotransferase 1 (Hs2st1)” value (GenBank AI451467, vs mice given only isoproterenol) was 2.2 and the “FC EST” value (GenBank AI467657, 1st listing, vs mice given only isoproterenol) was −1.9. For the same compound, the “FC EST” value (GenBank AI467657, 2nd listing, vs mice given only isoproterenol) was −1.6, the “FC EST” value (GenBank AI480750, vs mice given only isoproterenol) was 1.7 and the “FC Interferon activated gene 205 (Ifi205)” value (GenBank AI481797, vs mice given only isoproterenol) was −2.2. For the same compound, the “FC Protein tyrosine phosphatase, receptor-type, F interacting protein, binding protein 2 (Ppfibp2)” value (GenBank AI503166, vs mice given only isoproterenol) was −2.0, the “FC Dipeptidase 1 (Dpep1)” value (GenBank AI647687, vs mice given only isoproterenol) was −2.0 and the “FC Homocysteine-inducible, endoplasmic reticulum stress-inducible, ubiquitin-like domain member 1 (Herpud1)” value (GenBank AI835088, vs mice given only isoproterenol) was −3.0. The “FC Sulfotransferase family 1A, phenol-preferring, member 1 (Sult1a1)” value (GenBank AK002700, vs mice given only isoproterenol) was −3.7, the “FC GPI-ahored HDL-binding protein 1 (Gpihbp1)” value (GenBank AK003305, vs mice given only isoproterenol) was −1.8 and the “FC Ets variant gene 5 (Etv5)” value (GenBank AK003461, vs mice given only isoproterenol) was −2.0. For the same compound, the “FC Peptidylprolyl isomerase (cyclophilin)-like 1 (Ppil1)” value (GenBank AK004331, vs mice given only isoproterenol) was 1.8, the “FC Extra cellular link domain-containing 1 (Xkd1)” value (GenBank AK004726, vs mice given only isoproterenol) was −1.8 and the “FC SRY-box containing gene 17 (Sox17)” value (GenBank AK004781, vs mice given only isoproterenol) was −1.6. The “FC Phospholipase A2 group VII (platelet-activating factor acetylhydrolase, plasma) (Pla2g7)” value (GenBank AK005158, vs mice given only isoproterenol) was −2.2, the “FC Methyl-CpG binding domain protein 1 (Mbd1)” value (GenBank AK007371, 1st listing, vs mice given only isoproterenol) was −2.5 and the “FC Methyl-CpG binding domain protein 1 (Mbd1)” value (GenBank AK007371, 2nd listing, vs mice given only isoproterenol) was −2.0. The “FC Homeobox only domain (Hod)” value (GenBank AK009007, vs mice given only isoproterenol) was 1.5, the “FC F-box and leucine-rich repeat protein 20 (Fbxl20)” value (GenBank AK012109, vs mice given only isoproterenol) was −2.0 and the “FC Dual specificity phosphatase 4 (Dusp4)” value (GenBank AK012530, vs mice given only isoproterenol) was −2.4. For the same compound, the “FC Hydroxyacylglutathione hydrolase-like (Haghl)” value (GenBank AK012748, vs mice given only isoproterenol) was 2.0, the “FC Leucine-rich repeat-containing 52 (Lrrc52)” value (GenBank AK015134, vs mice given only isoproterenol) was −2.6 and the “FC Sphingosine kinase 2 (Sphk2)” value (GenBank AK016616, vs mice given only isoproterenol) was 1.5. For the same compound, the “FC DNA-damage-inducible transcript 4 (Ddit4)” value (GenBank AK017926, vs mice given only isoproterenol) was −5.6, the “FC Kelch-like 24 (Khl24)” value (GenBank AK018314, vs mice given only isoproterenol) was −2.1 and the “FC Transforming, acidic coiled-coil containing protein (Tacc1)” value (GenBank AK019530, heart, drug + isoproterenol vs isoproterenol-only mice, CH vs normal FC −2.1) was 3.2 fold. For the same compound, the “FC Protein arginine N-methyltransferase 1 (Prmt1)” value (GenBank AK020120, vs mice given only isoproterenol) was 1.8, the “FC Hydroxyacylglutathione hydrolase-like (Haghl)” value (GenBank AK021220, vs mice given only isoproterenol) was 1.8 and the “FC Phosphodiesterase 7A (Pde7a)” value (GenBank AU015378, vs mice given only isoproterenol) was −2.2. For the same compound, the “FC p53 regulated PA26 nuclear protein (Sestrin 1) (Sesn1)” value (GenBank AV016566, vs mice given only isoproterenol) was −2.3, the “FC EST” value (GenBank AV032877, vs mice given only isoproterenol) was −1.5 and the “FC Ectonucleoside triphosphate diphosphohydrolase 1 (Entpd1)” value (GenBank AV117919, vs mice given only isoproterenol) was −2.1. For the same compound, the “FC F-box and leucine-rich repeat protein 20 (Fbxl20)” value (GenBank AV120094, vs mice given only isoproterenol) was −1.5, the “FC Transthyretin (Ttr)” value (GenBank AV152953, heart, drug + isoproterenol vs isoproterenol-only mice, CH vs normal FC 4.4) was −2.8 fold and the “FC Solute carrier family 10 (sodium/bile acid cotransporter family), member 6 (Slc10a6)” value (GenBank AV244484, vs mice given only isoproterenol) was −5.3.
